Each structure is given as a SMILES string. Entries after “also recorded” stand apart in the source; their conditions may differ.

Experimental findings from US9933367B2, “Method to identify and isolate pluripotent stem cells using endogenous blue fluorescence” (NATIONAL CENTRE FOR BIOLOGICAL SCIENCES, priority 2012, dated 2018) are described below.

For one assay, the system named is HPSCs. The assay is described as follows: Supplementing HPSC culture media with retinyl palmitate or retinol; blue fluorescence of lipid bodies. In kind it is cell-based, human. The source says:
All non-confocal epifluorescence images are obtained with a Nikon Eclipse TE2000-E-PFS (Japan) microscope with a Photometrix Cascade II 512 EM-CCD camera (Roper Scientific, USA) and Image Pro-Plus AMS software (Media Cybernetics, USA). The Nikon objectives used are 60×/NA1.4 oil immersions and 10×/NA 0.3 for all experiments. Fluorescence is visualized using band pass filters (Chroma Technology, USA). The filters used are Blue (Exciter—350 nm/50, Dichoric—400 nm long pass, Emitter—460 nm/50), Green (Exciter—500 nm/20, Dichoric—535 nm/30, Emitter—515 long pass) and Red (Exciter—450 nm/30, Dichoric—620 nm/0, Emitter—570 long pass). Confocal images are acquired using a Zeiss LSM 510 Meta Confocal set up with a 63× objective and a 405 laser (excitation—405 nm, emission—about 420 nm to about 490 nm). […] For quantitative analysis and depiction of images for direct comparison, for e.g. between mouse ES cells and human ES cells, all the images presented have the same intensity scale bounded by the adjusted maximum value of the HuES cell image. Scatter plot and linear fit analyses of pluripotency marker expression (OCT4, SOX2 and Nanog) and blue fluorescence is performed with fluorescence intensity values of individual pixels using the ‘plot profile’ application from ImageJ. […] The increase in fluorescence intensities is also found to be confined to the lipid bodies.

Assay [1] concerns mouse embryonic stem cells. The assay is described as follows: Mouse ES cells grown in media with additional retinol; blue fluorescence and lipid bodies. The format is cell-based. To be noted: 20% KOSR media with retinol, 48 hours. An excerpt:
The increase in fluorescence intensities is also found to be confined to the lipid bodies.

A further assay relates to HuES cells. The assay is described as follows: HuES cells in retinol-free E8 media supplemented with retinol; fluorescent lipid bodies. The note with it: HuES cells cultured in E8 media (lacks retinol), retinol 10 μM added. In kind it is cell-based, human. As to the method:
HuES cells cultured in E8 media show a rapid decrease in lipid bodies along with associated fluorescence in 24 hours, and the lipid bodies are completely absent by 72 hours (FIG. 10). […] A possible reason could be the differential expression of proteins involved in retinoid uptake and metabolism between the two states/cell types.

Consider `CC1=C(/C=C/C(C)=C/C=C/C(C)=C/CO)C(C)(C)CCC1` [retinol], for which the “blue fluorescence in the HPSCs emanating from the lipid bodies” value in the assay with HPSCs (culture media supplemented with retinol) is “dose-dependent increase”. In assay [1], the “retinoid-associated (blue) fluorescence” value is “practically no increase; also recorded: do not show any increase in blue fluorescence”. For the same compound, the “fluorescent lipid bodies after addition to E8 cultures” value in the assay with HuES cells is on record as “re-appearance of fluorescent lipid bodies; also recorded: regain blue fluorescent lipid bodies in 48 hours”.
Regarding `CCCCCCCCCCCCCCCC(=O)OC/C=C(C)/C=C/C=C(C)/C=C/C1=C(C)CCCC1(C)C` [retinyl palmitate], the “mean blue fluorescence intensity in the lipid bodies” value in the assay with HPSCs (HPSCs on MEF feeder cells, typical media with 20% KOSR, supplemented at 2-10 μM, after 24 hours) is recorded as “dose-dependent saturable increase; also recorded: dose dependent increase in blue fluorescence”.
